Experimental data: patent publication US12714688B2, “Margaric acid decreases PIEZ02-mediated pain” (The United States of America, as represented by The …, priority 2020, dated 2026)

Legend:
[1] = test system: mechano-currents from DRG neurons; details: cited from earlier work
[2] = test system: mouse PIEZO2; assay: Whole-cell patch-clamp with mechanical indentation of N2A^Piezo1−/− cells transfected with Piezo2 variant 2 (V2); details: latrunculin A 1 μM for 1 h
Method: (§1) Cell culture and electrophysiology: Piezo1 knock-out mouse N2A (N2A^Piezo1−/−) cells were a gift from Dr. Gary R. Lewin, human Merkel cell carcinoma cell line (MCC13 cells; Cell Bank Australia reference number: CBA1338) were obtained from Sigma, and DRG neurons were obtained from sacrificed mice. N2A^Piezo1−/− cells were cultured in Dulbecco's Modified Eagle Medium (DMEM), 5% penicillin streptomycin and 10% fetal bovine serum (FBS); MCC13 cells were cultured in RPMI 1640 (with 2 mM L-glutamine+25 mM HEPES; Sigma), 5% penicillin-streptomycin and 10% FBS and; DRG neurons were cultured in DMEM, 1% penicillin-streptomycin, 1% MEM vitamin solution, 1% L-glutamine, and 10% horse serum. Prior to electrophysiological measurements, N2A^Piezo1−/−, MCC13 and DRG neurons were supplemented overnight (≈18 h) with MA. […] MA was obtained from Nu-Chek Prep, INC. The cultured cells were maintained at 37° C., 95% relative humidity, and 5% CO2.
For whole-cell recordings, the bath solution contained 140 mM NaCl, 6 mM KCl, 2 mM CaCl2), 1 mM MgCl2, 10 mM glucose, and 10 mM HEPES (pH 7.4; 300 mOsm). The pipette solution for voltage-clamp recordings contained: 140 mM CsCl, 5 mM EGTA, 1 mM CaCl2), 1 mM MgCl2, and 10 mM HEPES (pH 7.2); and for current clamp recordings: 140 mM KCl, 6 mM NaCl, 2 mM CaCl2), 1 mM MgCl2, 10 mM glucose, and 10 mM HEPES (pH 7.4; 300 mOsm); MA and bradykinin acetate salt (Sigma) perfused during experiments were dissolved in the bath solution to a final concentration of 300 μM for 2 min, and 1 μM for 5 min respectively; and for long exposure experiments bradykinin was supplemented to the culture medium and added to the cells 18-24 h prior recording. For cytoskeleton disruption experiments, N2A^Piezo1−/− were incubated in media supplemented with 1 μM latrunculin A (Cayman Chemicals) for 1 h prior recordings. Pipettes were made out of borosilicate glass (Sutter Instruments) and were fire-polished before use until a resistance between 3 and 5 MΩ was reached.
During mechanical stimulation, currents were recorded at a constant voltage (−60 mV, voltage-clamp), and voltages were recorded without injecting current (current-clamp). Both variables were sampled at 100 kHz and low-pass filtered at 10 kHz using a MultiClamp™ 700 B amplifier and Clampex (Molecular Devices, LLC). […] Leak currents before mechanical stimulations were subtracted off-line from the current traces and data were digitally filtered at 2 kHz with ClampFit (Molecular Devices, LLC).
Mechanical stimulation: For indentation assays, N2A^Piezo1−/−, MCC13 DRG neurons, and human iPSC374 derived neurons were mechanically stimulated with a heat-polished blunt glass pipette (3-4 μm) driven by a piezo servo controller (E625, Physik Instrumente). The blunt pipette was mounted on a micromanipulator at an ~45° angle and positioned 3-4 μm above from the cells without indenting them. Displacement measurements were obtained with a square-pulse protocol consisting of 1 μm incremental indentation steps, each lasting 200 ms with a 2-ms ramp in 10-s intervals. The threshold of mechano-activated currents for each experiment was defined as the indentation step that evoked the first current deflection from the baseline.

[3] = test system: PIEZO2-PIEZO1 beam chimera; assay: Whole-cell patch-clamp of N2A^Piezo1−/− cells transfected with Piezo2-Piezo1 beam chimera; details: MA 100 μM 18 h; latrunculin A 1 μM for 1 h
Method: as §1
For whole-cell recordings, the bath solution contained 140 mM NaCl, 6 mM KCl, 2 mM CaCl2), 1 mM MgCl2, 10 mM glucose, and 10 mM HEPES (pH 7.4; 300 mOsm). The pipette solution for voltage-clamp recordings contained: 140 mM CsCl, 5 mM EGTA, 1 mM CaCl2), 1 mM MgCl2, and 10 mM HEPES (pH 7.2); and for current clamp recordings: 140 mM KCl, 6 mM NaCl, 2 mM CaCl2), 1 mM MgCl2, 10 mM glucose, and 10 mM HEPES (pH 7.4; 300 mOsm); MA and bradykinin acetate salt (Sigma) perfused during experiments were dissolved in the bath solution to a final concentration of 300 μM for 2 min, and 1 μM for 5 min respectively; and for long exposure experiments bradykinin was supplemented to the culture medium and added to the cells 18-24 h prior recording. For cytoskeleton disruption experiments, N2A^Piezo1−/− were incubated in media supplemented with 1 μM latrunculin A (Cayman Chemicals) for 1 h prior recordings. […]
During mechanical stimulation, currents were recorded at a constant voltage (−60 mV, voltage-clamp), and voltages were recorded without injecting current (current-clamp). […]

[4] = test system: mice; assay: Von Frey test after acute inflammation by topical AITC; type: in vivo, mouse; details: topical AITC; saline injected mice; filaments <0.16 g
Method: Mice behavior: MA solution: MA was prepared in sterile Dulbecco's phosphate buffered saline, with 70 g/L fatty acid free bovine serum albumin (BSA; Sigma), and MA to a final concentration of 5 mM. The solution was filtered to avoid undissolved materials.
Subjects: For the experiment 8-12 weeks old male and female C57B16/J mice (N=12; control n=6; male=3, female=3) MA (n=6; male=3, female=3) per experiment were used. Mice were housed under a 12 hr light dark cycle and granted access to food and water ad libitum.
Treatment: Animals were put in two groups (control and MA) and given injections in the plantar of the left hind paw for 7 days prior behavioral assessment. Injections were given as follows: Mouse is restrained by their tail, foot, and over shoulders scruff. […]
Mechanical threshold (Von Frey test): Punctate mechanical allodynia was measured using Von Frey monofilaments (Stoelting, Inc.) in varying grams of force (0.008-1 g). Animals were placed in small enclosures over a wire mesh and the plantar of the hind paw was poked with a filament and responses were recorded. Withdrawal responses were recorded when the animal lifted, shook, or licked the paw in response to stimulus presentation. […]

## GsMTx-4
[1]
  inhibition of mechano-currents: failed to inhibit mechano-currents from DRG neurons

## C/C1=C/C(=O)O[C@@H]2C[C@@H](CC[C@H](C)/C=C\C=C\CC1)O[C@@](O)([C@@H]1CSC(=O)N1)C2 [latrunculin A, reference compound]
[2]
  effect of latrunculin A on PIEZO2 inhibition by MA: enhances PIEZO2 inhibition by MA
[2]; listed as Latrunculin A
  effect of latrunculin A on PIEZO2 inhibition by MA: pronounced leftward shift in the MA dose-response profile for PIEZO2
[3]
  modulation of the MA effect on the chimera by latrunculin A: not modulated by latrunculin A treatment

## C=CCN=C=S [AITC, Allyl isothiocyanate, reference compound]
[4]
  withdrawal from von Frey filaments caused by AITC: causes mice to withdraw their hind paws from even the lightest von Frey filaments
